Experimental data reported in US6436631B1, “Comparative phenotype analysis for assessment of biologically active compounds such as antimicrobials” (priority 2000, dated 2002).
Where a SMILES comes first, the peptide text is derived from it.

Key:
[1] = test system: Saccharomyces cerevisiae (BY4741); assay: EA MicroPlate nutrient stimulation test without methionine (iodo-nitro-tetrazolium violet reduction); format: cell-based; conditions: 30° C., 2 days, visual
Method: In this Example, the response of a yeast to various compounds was tested. The yeast used in these experiments was Saccharomyces cerevisiae (BY4741, obtained from Dr. Mark Johnston, Washington University, St. Louis, Mo.). The genotype of this strain was indicated as being Mat a (i.e., mating type “a”), ura-, his-, leu-, and met-. In these experiments, the ability of this strain to grow in a culture medium without methionine was investigated. Methionine interferes with the ability to test this organism for its utilization of other potential sulfur sources (i.e., if methionine is added to a culture medium the organism preferentially uses it as a sulfur source). The yeast was grown for 48 hours at 30° C. on R2A agar medium (Acumedia). Cells were removed from the agar surface with a sterile cotton swab and suspended at a cell density of 65% transmittance (as read using a BiologTM turbidimeter) in an inoculating fluid containing 50 mM glucose, 0.15 mM uracil, 0.15 mM L-histidine, 0.15 mM L-leucine, 0.15 mM MgCl2, 1.0 mM CaCl2, 2.0 mM NaCl, 1.0 mM KCl, 3.0 mM NH4Cl, 1.0 mM NaH2PO4, 0.1 mM Na2SO4, 0.01% iodo-nitro-tetrazolium violet, 0.01% phytagel (gellan gum), 0.03% pluronic F-68; the pH was adjusted to 6.0. The cell suspension (100 μl/well) was then used to inoculate a BiologTM EA MicroPlateTM, which tests the ability of a cell to be stimulated by a set of 95 different nutrients. The nutrients included within the microarray were: […] One well (A-1) contains no nutrients and is used as a reference (i.e., control) well. After inoculation, the microarray was incubated at 30° C. for 2 days and visually observed.

E. coli MG1655 = assay: phenotype microarray (PM) comparative profiling of antimicrobials, S-O-R scoring, distance matrix and dendrogram; format: cell-based; conditions: 7 PMs; for clustering in dendrogram of PM S-O-R response (FIG. 4): 1x level of each antimicrobial (lowest concentration giving detectable inhibition of respiration), 665 phenotypes, 48 hours; for PM response pattern (fingerprint) of cells exposed to the antimicrobial: partially inhibitory concentrations (1x, 2x)
Text: In this Example, experiments are described in which the feasibility of using PMs for analyzing the metabolic effects of antimicrobial compounds and their mechanisms of action were investigated. Specifically, the experiments were designed to determine whether compounds that act via interaction with specific bacterial proteins (“target-specific”) can be distinguished from those acting via non-specific mechanisms, solely on the basis of differences in signature metabolic profiles. In addition, the experiments were designed to determine whether different interactors of the same pathway produce a similar signature profile, as well as whether interactors of different pathways produce distinctly different profiles.
Twenty chemicals were selected for inclusion in these experiments. Fifteen of these, listed below in Table 3 as “single target antimicrobials” are thought to have relatively specific modes of action, whereas five antimicrobials, listed as “multiple target antimicrobials” are thought to have non-specific modes of action.
An initial set of experiments was performed to select the concentrations of each chemical as it was desirable to use a partially inhibitory concentration. A completely inhibitory or sub-inhibitory concentration would not provide any information. Partial inhibitory levels were determined using the criterion of decreased formation of purple color due to inhibition of tetrazolium violet reduction (i.e., respiration). Each compound was tested at two concentrations giving partial inhibition of respiration. The lower concentration, referred to as “1x,” was the lowest concentration giving detectable inhibition of respiration. The higher concentration, referred to as “2x,” was twice the 1x concentration. […] Thus, only 1x and 2x concentrations were used.
In these experiments, E. coli MG1655 was tested against 20 antimicrobials at two concentrations using 7 PMs each, for a total of 280 PMs. […] Since in these experiments each PM contains 95 phenotypes, the total number of phenotypes analyzed here was 26,600. Each PM was monitored kinetically every 15 minutes using a specialized instrument described is U.S. patent application Ser. No. 09/277,353 (herein incorporated by reference) for an incubation duration of 48 hours. Thus, the total number of data points for the experiments was 5,107,200.
The results of the data collected for a run is a kinetic phenotype of the cell exposed to an antimicrobial overlaid and compared against the phenotype of the cell without exposure to the antimicrobial. When the two kinetic tracings of tetrazolium reduction (i.e., cell respiration) overlap, there is no difference in the response to that phenotype (indicated as “O”). When the control tracing exceeds the antimicrobial tracing, the organism is scored as “more sensitive” or “S.” When the antimicrobial tracing exceeds the control tracing, the organism is scored as “more resistant,” or “R.” Based on visual examination of the PMs after incubation, the threshold values for judging S and R results were determined. The software then automatically calculated the areas under the differential tracings and applied threshold values to score all 26,600 phenotypes as S, O, or R.
From the S—O—R data, a distance matrix was generated. The S—O—R response (a string of 665 values) for one antimicrobial was compared to the response for another antimicrobial, and the differences summed up. A difference of O to S or of O to R was assigned a value of 1, and a difference of S to R was assigned a value of 2. The string of 665 differences was then summed up.

E. coli (MG1655) = assay: BAC combination (synergy/antagonism) testing in ES1, ES2 and ES3 MicroPlate sensitivity panels, tetrazolium violet; format: cell-based
Method: In this Example, the susceptibility of E. coli (MG1655) was tested in the presence of vancomycin (10 μg/ml) or sulfamethoxazole (235 μg/ml) in microarrays containing various additional compounds. The microarrays were present in three Biolog™ sensitivity test panels, referred to as ES1, ES2 and ES3 MicroPlates™. The organisms were added to a sterile aqueous suspension containing 0.40% NaCl, 0.03% pluronic F68, 0.01% phytagel, and 0.01% tetrazolium violet, to a cell density of 85% transmittance (as measured using a BiologTm turbidimeter). The BAC to be tested was added to the suspension just prior to inoculating the organisms (100 μl/well) into the wells of the microarrays. The wells of these ES MicroPlates™ contained a basal broth medium consisting of tryptone (2 g/L), yeast extract (1 g/L), and NaCl (1 g/L). […]

[2] = test system: vancomycin-intermediate S. aureus isolates (VISA); conditions: VISA isolates identified since 1996 in Europe, Asia and the U.S.; cited from earlier work

CSCC[C@H](N)C(=O)O [L-methionine]
stimulation of growth/respiration (pink color) in medium without methionine ([1]; L-methionine well (25 μM)): increased pink color

CC1(C)S[C@@H]2[C@H](NC(=O)[C@H](N)c3ccccc3)C(=O)N2[C@H]1C(=O)O [ampicillin]
clustering in dendrogram of PM S-O-R response (FIG. 4) (E. coli MG1655): cluster

CC[C@H](C)[C@H](N)C1=N[C@H](C(=O)N[C@@H](CC(C)C)C(=O)N[C@H](CCC(=O)O)C(=O)N[C@H](C(=O)N[C@H]2CCCCNC(=O)[C@H](CC(N)=O)NC(=O)[C@@H](CC(=O)O)NC(=O)[C@H](Cc3cnc[nH]3)NC(=O)[C@@H](Cc3ccccc3)NC(=O)[C@H]([C@@H](C)CC)NC(=O)[C@@H](CCCN)NC2=O)[C@@H](C)CC)CS1 [bacitracin] (HELM PEPTIDE1{[CC[C@H](C)[C@H](N)C1=N[C@H](C(=O)[*:2])CS1].L.[dE].I.K.[NCCC[C@@H](N[*:1])C(=O)[*:2]].I.[dF].H.[dD].N}$PEPTIDE1,PEPTIDE1,5:R3-11:R2$$$V2.0)
clustering in dendrogram of PM S-O-R response (FIG. 4) (E. coli MG1655): cluster

CC(=O)OCC1=C(C(=O)O)N2C(=O)[C@@H](NC(=O)Cc3cccs3)[C@H]2SC1 [cephalothin]
change of sensitivity of E. coli strain to panel compound (E. coli (MG1655); in the presence of 10 μg/ml vancomycin, cephalothin at 10 and 20 μg/ml): increased sensitivity | change of sensitivity of E. coli strain to panel compound (E. coli (MG1655); in the presence of 235 μg/ml sulfamethoxazole, cephalothin at 5.0, 10 and 20 μg/ml): increased sensitivity | clustering in dendrogram of PM S-O-R response (FIG. 4) (E. coli MG1655): cluster

C/C=C/C/C=C/CCC(=O)[C@H]1O[C@H]1C(N)=O [cerulenin]
PM response pattern (fingerprint) of cells exposed to the antimicrobial (E. coli MG1655): more closely resembled the multiple target antimicrobials

O=C(N[C@H](CO)[C@H](O)c1ccc([N+](=O)[O-])cc1)C(Cl)Cl [chloramphenicol]
clustering in dendrogram of PM S-O-R response (FIG. 4) (E. coli MG1655): cluster

N[C@@H](CCC(=O)N[C@@H](CS)C(=O)NCC(=O)O)C(=O)O [glutathione]
stimulation of growth/respiration (pink color) in medium without methionine ([1]; glutathione well (reduced form; 100 μM)): increased pink color

CCn1cc(C(=O)O)c(=O)c2ccc(C)nc21 [nalidixic acid]
change of sensitivity of E. coli strain to panel compound (E. coli (MG1655); in the presence of 10 μg/ml vancomycin, nalidixic acid at 1.0, 2.0 and 4.0 μg/ml): increased sensitivity | clustering in dendrogram of PM S-O-R response (FIG. 4) (E. coli MG1655): did not cluster with the other two DNA gyrase inhibiting chemicals

CCn1cc(C(=O)O)c(=O)c2cc3c(cc21)OCO3 [oxolinic acid]
clustering in dendrogram of PM S-O-R response (FIG. 4) (E. coli MG1655): clustered

C[C@@H]1O[C@@H]1P(=O)(O)O [phosphomycin]
clustering in dendrogram of PM S-O-R response (FIG. 4) (E. coli MG1655): cluster

Cc1ncc(CO)c(CO)c1O [pyridoxine]
stimulation of growth/respiration (pink color) in medium without methionine ([1]; pyridoxine well (0.25 μM)): increased pink color

[H]/N=C(/N)N[C@H]1[C@H](O)[C@@H](O)[C@H](O[C@@H]2O[C@@H](C)[C@](O)(C=O)[C@H]2O[C@@H]2O[C@@H](CO)[C@H](O)[C@@H](O)[C@@H]2NC)[C@@H](N/C(N)=N\[H])[C@@H]1O [streptomycin]
clustering in dendrogram of PM S-O-R response (FIG. 4) (E. coli MG1655): cluster

Nc1ccc(S(=O)(=O)Nc2nccs2)cc1 [sulfathiazole]
PM response pattern (fingerprint) of cells exposed to the antimicrobial (E. coli MG1655): more closely resembled the multiple target antimicrobials

CN[C@H](CC(C)C)C(=O)N[C@H]1C(=O)N[C@@H](CC(N)=O)C(=O)N[C@H]2C(=O)N[C@H]3C(=O)N[C@H](C(=O)N[C@H](C(=O)O)c4cc(O)cc(O)c4-c4cc3ccc4O)[C@H](O)c3ccc(c(Cl)c3)Oc3cc2cc(c3O[C@@H]2O[C@H](CO)[C@@H](O)[C@H](O)[C@H]2O[C@H]2C[C@](C)(N)[C@H](O)[C@H](C)O2)Oc2ccc(cc2Cl)[C@H]1O [vancomycin]
change of sensitivity of E. coli strain to panel compound (E. coli (MG1655); in the presence of 10 μg/ml vancomycin, vancomycin wells at 10, 20, 40 and 80 μg/ml): transient increased sensitivity | vancomycin minimum inhibitory concentration [MIC] [2]: 8 to 16 µg/mL

coumermycin
clustering in dendrogram of PM S-O-R response (FIG. 4) (E. coli MG1655): clustered

polymyxin B
PM response pattern (fingerprint) of cells exposed to the antimicrobial (E. coli MG1655): more closely resembled the multiple target antimicrobials
